# Source: PMC4865888 (Cell chemical biology, 2016)
# Legend:
# [1] = system: DENV2 NGC; test: time-of-addition experiments, BHK21 cells, viral plaque assay; assay type: cell-based, dengue virus; conditions: 15 μM, BHK21, MOI 1, yield at 24 hpi
# [2] = system: DENV2 NGC; test: low MOI multiple replication cycle infection experiment; assay type: cell-based, dengue virus; conditions: MOI 0.01, treatment delayed until 24 hpi; GNF-2 15 μM, 8b 5 μM; titers at 48, 72 hpi
# [3] = biological target: recombinant, soluble DENV2 E protein (sE), prefusion (Dengue virus type 2, UniProt P14340); test: Alphascreen assay, GNF2-biotin and prefusion sE; conditions: increasing concentrations, 20 nM to 10 μM
# [4] = system: DENV2 NGC; conditions: dose-response, inhibitor present during entire single round, MOI 1, 24 hpi
smiles,measurement,setting,value
NC(=O)c1cccc(-c2cc(Nc3ccc(OC(F)(F)F)cc3)ncn2)c1 [GNF-2],"antiviral effect when added post-infection (POST, 0-5 hours)",[1],inhibit DENV2
same,antiviral effect when pre-incubated with viral inoculum (PRE virus),[1],additional antiviral activity
same,inhibition of DENV2 over multiple replication cycles,[2],inhibit DENV2
same,competition with GNF2-biotin for prefusion sE (Alphascreen signal),[3],decrease the Alphascreen signal
same,antiviral activity in single-cycle virus yield reduction assay,[4],more antiviral activity than imatinib
